“Also recorded” adds a separate entry of the source.
Experiment: Phase 1/2 clinical study: safety, treatment-emergent adverse events
Format: in vivo
Protocol: This study includes monotherapy as well as combination treatment parts. The monotherapy part includes Phase 1 dose escalation and dose expansion as well as Phase 2. […] Phase 1 dose escalation will proceed prior to start of Phase 1b or Phase 2. Once a recommended Phase 2 dose (RP2D) is identified in Phase 1, enrollment can commence to the Phase 1b combination therapies and Phase 2 monotherapy cohorts.
Dose escalation will follow a 3+3 design starting with a 25 mg QD dose (followed by 50 mg QD (dose level cohort 2), 100 mg QD (dose level cohort 3), 150 mg QD (dose level cohort 4), 200 mg QD (dose level cohort 5), 250 mg QD (dose level cohort 6), and 300 mg QD (dose level cohort 7)). Cycle length will be 28 days.
Any toxicity, regardless of the NCI CTCAE v.5 grade, resulting in discontinuation, does reduction or considered a DLT unless the SRC determines the toxicity if clearly unrelated to study drug (i.e., related to the patient's underlying disease other medical condition or concomitant medications).

## COc1ccc(F)cc1C(=O)NCc1ccc(-c2nn([C@@H](C)C(F)(F)F)c(N)c2C(N)=O)cc1 [BTK-I, (S)-5-amino-3-(4-((5-fluoro-2-methoxybenzamido)methyl)phenyl)-1-(1,1,1-trifluoropropane-2-yl)-1H-pyrazole-4-carboxamide]
25 mg QD (N = 5)
  Abdominal pain (TEAE): 1 (20.0) n(%)
  Anaemia (TEAE): 0 (0.0) n(%)
  Back pain (TEAE): 0 (0.0) n(%)
  Constipation (TEAE): 0 (0.0^ n(%)
  Contusion (TEAE): 0 (0.0) n(%)
  Cough (TEAE): 3 (60.0) n(%)
  Diarrhoea (TEAE): 3 (60.0) n(%)
  Dizziness (TEAE): 2 (40.0) n(%)
  Dyspnoea (TEAE): 0 (0.0) n(%)
  Fatigue (TEAE): 3 (60.0) n(%)
  Headache (TEAE): 2 (40.0) n(%)
  Nausea (TEAE): 2 (40.0) n(%)
  Neutropenia (TEAE): 0 (0.0) n(%)
  Neutrophil count decreased (TEAE): 1 (20.0) n(%)
  Oedema peripheral (TEAE): 1 (20.0) n(%)
  Rash maculopapular (TEAE): 0 (0.0) n(%)
  Subjects with Any TEAEs: 5 (100.0) n(%)
  Upper respiratory tract infection (TEAE): 1 (20.0) n(%)
25 mg to 300 mg QD
  dose limiting toxicities: no dose limiting toxicities or dose reductions; also recorded: DLTS have not been observed
50 mg QD (N = 6)
  Abdominal pain (TEAE): 0 (0.0) n(%)
  Anaemia (TEAE): 0 (0.0) n(%)
  Back pain (TEAE): 0 (0.0) n(%)
  Constipation (TEAE): 0 (0.0) n(%)
  Contusion (TEAE): 2 (33.3) n(%)
  Cough (TEAE): 2 (33.3) n(%)
  Diarrhoea (TEAE): 1 (16.7) n(%)
  Dizziness (TEAE): 0 (0.0) n(%)
  Dyspnoea (TEAE): 0 (0.0) n(%)
  Fatigue (TEAE): 3 (50.0) n(%)
  Headache (TEAE): 1 (16.7) n(%)
  Nausea (TEAE): 2 (33.3) n(%)
  Neutropenia (TEAE): 1 (16.7) n(%)
  Neutrophil count decreased (TEAE): 0 (0.0) n(%)
  Oedema peripheral (TEAE): 1 (16.7) n(%)
  Pyrexia (TEAE): 0 (0.0) n(%)
  Rash maculopapular (TEAE): 0 (0.0) n(%)
  Subjects with Any TEAEs: 6 (100.0) n(%)
  Upper respiratory tract infection (TEAE): 3 (50.0) n(%)
100 mg QD (N = 9)
  Abdominal pain (TEAE): 2 (2.2) n(%)
  Anaemia (TEAE): 2 (22.2) n(%)
  Back pain (TEAE): 0 (0.0) n(%)
  Constipation (TEAE): 0 (0.0) n(%)
  Contusion (TEAE): 0 (0.0) n(%)
  Cough (TEAE): 0 (0.0) n(%)
  Diarrhoea (TEAE): 3 (33.3) n(%)
  Dizziness (TEAE): 1 (11.1) n(%)
  Dyspnoea (TEAE): 2 (22.2) n(%)
  Fatigue (TEAE): 2 (22.2) n(%)
  Headache (TEAE): 1 (11.1) n(%)
  Nausea (TEAE): 1 (11.1) n(%)
  Neutropenia (TEAE): 0 (0.0) n(%)
  Neutrophil count decreased (TEAE): 0 (0.0) n(%)
  Oedema peripheral (TEAE): 0 (0.0) n(%)
  Pyrexia (TEAE): 1 (11.1) n(%)
  Rash maculopapular (TEAE): 1 (11.1) n(%)
  Subjects with Any TEAEs: 8 (88.9) n(%)
  Upper respiratory tract infection (TEAE): 1 (11.1) n(%)
150 mg QD (N = 20)
  Abdominal pain (TEAE): 1 (5.0) n(%)
  Anaemia (TEAE): 3 (15.0) n(%)
  Back pain (TEAE): 5 (25.0) n(%)
  Constipation (TEAE): 5 (25.0) n(%)
  Contusion (TEAE): 3 (15.0) n(%)
  Cough (TEAE): 3 (15.0) n(%)
  Diarrhoea (TEAE): 5 (25.0) n(%)
  Dizziness (TEAE): 2 (10.0) n(%)
  Dyspnoea (TEAE): 2 (10.0) n(%)
  Fatigue (TEAE): 3 (15.0) n(%)
  Headache (TEAE): 4 (20.0) n(%)
  Nausea (TEAE): 1 (5.0) n(%)
  Neutropenia (TEAE): 4 (20.0) n(%)
  Neutrophil count decreased (TEAE): 3 (15.0) n(%)
  Oedema peripheral (TEAE): 3 (15.0) n(%)
  Pyrexia (TEAE): 1 (5.0) n(%)
  Rash maculopapular (TEAE): 2 (10.0) n(%)
  Subjects with Any TEAEs: 20 (100.0) n(%)
  Upper respiratory tract infection (TEAE): 7 (35.0) n(%)
200 mg QD (N = 238)
  Abdominal pain (TEAE): 14 (5.9) n(%)
  Anaemia (TEAE): 16 (6.7) n(%)
  Back pain (TEAE): 14 (5.9) n(%)
  Constipation (TEAE): 14 (5.9) n(%)
  Contusion (TEAE): 28 (11.8) n(%)
  Cough (TEAE): 15 (6.3) n(%)
  Diarrhoea (TEAE): 33 (13.9) n(%)
  Dizziness (TEAE): 10 (4.2) n(%)
  Dyspnoea (TEAE): 16 (6.7) n(%)
  Fatigue (TEAE): 39 (16.4) n(%)
  Headache (TEAE): 14 (5.9) n(%)
  Nausea (TEAE): 16 (6.7) n(%)
  Neutropenia (TEAE): 15 (6.3) n(%)
  Neutrophil count decreased (TEAE): 10 (4.2) n(%)
  Oedema peripheral (TEAE): 14 (5.9) n(%)
  Pyrexia (TEAE): 17 (7.1) n(%)
  Rash maculopapular (TEAE): 12 (5.0) n(%)
  Upper respiratory tract infection (TEAE): 3 (1.3) n(%)
250 mg QD (N = 25)
  Abdominal pain (TEAE): 0 (0.0) n(%)
  Anaemia (TEAE): 2 (8.0) n(%)
  Back pain (TEAE): 3 (2.0) n(%)
  Constipation (TEAE): 3 (12.0) n(%)
  Contusion (TEAE): 5 (20.0) n(%)
  Cough (TEAE): 3 (12.0) n(%)
  Diarrhoea (TEAE): 5 (20.0) n(%)
  Dizziness (TEAE): 1 (4.0) n(%)
  Dyspnoea (TEAE): 2 (8.0) n(%)
  Fatigue (TEAE): 10 (40.0) n(%)
  Headache (TEAE): 3 (12.0) n(%)
  Nausea (TEAE): 5 (20.0) n(%)
  Neutropenia (TEAE): 1 (4.0) n(%)
  Oedema peripheral (TEAE): 2 (8.0) n(%)
  Pyrexia (TEAE): 2 (8.0) n(%)
  Rash maculopapular (TEAE): 2 (8.0) n(%)
  Subjects with Any TEAEs: 25 (100.0) n(%)
  Upper respiratory tract infection (TEAE): 6 (24.0) n(%)
Overall (N = 323)
  Abdominal pain (TEAE): 20 (6.2) n (%)
  Anaemia (TEAE): 24 (7.4) n (%)
  Back pain (TEAE): 25 (7.7) n (%)
  Constipation (TEAE): 25 (7.7) n (%)
  Contusion (TEAE): 42 (13.0) n (%)
  Cough (TEAE): 29 (9.0) n (%)
  Diarrhoea (TEAE): 55 (17.0) n (%)
  Dizziness (TEAE): 18 (5.6) n (%)
  Dyspnoea (TEAE): 26 (8.0) n (%)
  Fatigue (TEAE): 65 (20.1) n (%)
  Headache (TEAE): 29 (9.0) n (%)
  Nausea (TEAE): 30 (9.3) n (%)
  Neutropenia (TEAE): 24 (7.4) n (%)
  Neutrophil count decreased (TEAE): 22 (6.8) n (%)
  Oedema peripheral (TEAE): 22 (6.8) n (%)
  Pyrexia (TEAE): 23 (7.1) n (%)
  Rash maculopapular (TEAE): 20 (6.2) n (%)
  Subjects with Any TEAEs: 264 (81.7) n (%)
  Upper respiratory tract infection (TEAE): 23 (7.1) n (%)
human, in vivo
  rates of atrial arrhythmias and major bleeding: low rates
  tolerability in patients: appeared to be well tolerated
n=42 of 323 patients
  contusion, treatment emergent adverse event regardless of attribution or grade: 13%
n=55 of 323 patients
  diarrhea, treatment emergent adverse event regardless of attribution or grade: 17%
n=65 of 323 patients
  fatigue, treatment emergent adverse event regardless of attribution or grade: 20%
Up to 300 mg QD
  maximum tolerated dose (MTD): lack of an MTD

From patent publication US12551463B2, “Dosing of a Bruton's tyrosine kinase inhibitor” (Loxo Oncology, Inc., priority 2019, dated 2026)
